Reference: US5561047A, “Method of identifying effectors of integrin activation” (priority 1994, dated 1996)
Where two headings read alike, the source gives them in different places.

Legend:
[1] = test system: platelet aggregation and secretion; conditions: Sless, Physiol. Rev. 1989; cited from earlier work
[2] = molecular target: T1, integrin αIIb β3 (washed human platelets) (Homo sapiens, UniProt P05106+P08514); test: integrin activation ELISA: biotin-PAC1 binding to intact washed platelets; format: cell-based; conditions: for extent of biotin-PAC1 binding at maximal agonist concentrations: comparison of thrombin, PMA and ADP; for αIIb β3 activation: physiological agonists
T1 construct: endogenous in cells; host or cells: washed human platelets from whole blood of healthy volunteers
T1 sequence (P08514 32-887 limits assumed): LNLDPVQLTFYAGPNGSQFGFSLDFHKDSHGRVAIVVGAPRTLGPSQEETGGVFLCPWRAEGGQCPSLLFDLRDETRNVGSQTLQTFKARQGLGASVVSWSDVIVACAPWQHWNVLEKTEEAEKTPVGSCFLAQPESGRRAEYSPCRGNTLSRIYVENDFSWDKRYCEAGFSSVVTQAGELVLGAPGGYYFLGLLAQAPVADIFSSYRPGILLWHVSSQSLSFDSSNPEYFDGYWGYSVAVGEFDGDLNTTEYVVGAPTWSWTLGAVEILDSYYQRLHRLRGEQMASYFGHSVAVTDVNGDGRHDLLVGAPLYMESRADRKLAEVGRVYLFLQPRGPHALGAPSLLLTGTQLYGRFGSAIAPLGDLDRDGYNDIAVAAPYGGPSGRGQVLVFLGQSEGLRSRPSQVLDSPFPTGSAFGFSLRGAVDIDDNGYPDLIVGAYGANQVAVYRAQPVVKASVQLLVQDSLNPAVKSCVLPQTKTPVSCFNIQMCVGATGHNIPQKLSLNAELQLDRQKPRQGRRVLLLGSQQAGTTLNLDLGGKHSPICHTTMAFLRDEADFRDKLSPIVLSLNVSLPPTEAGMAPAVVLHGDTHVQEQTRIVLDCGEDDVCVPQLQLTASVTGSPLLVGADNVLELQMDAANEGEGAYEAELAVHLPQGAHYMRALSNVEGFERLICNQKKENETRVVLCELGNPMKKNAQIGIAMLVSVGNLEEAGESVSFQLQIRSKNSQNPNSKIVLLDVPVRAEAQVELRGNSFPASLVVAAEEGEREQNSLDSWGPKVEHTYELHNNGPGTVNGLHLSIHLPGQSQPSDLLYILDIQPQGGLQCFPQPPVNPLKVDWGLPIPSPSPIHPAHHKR
T1 sequence (P08514 891-1039 limits assumed): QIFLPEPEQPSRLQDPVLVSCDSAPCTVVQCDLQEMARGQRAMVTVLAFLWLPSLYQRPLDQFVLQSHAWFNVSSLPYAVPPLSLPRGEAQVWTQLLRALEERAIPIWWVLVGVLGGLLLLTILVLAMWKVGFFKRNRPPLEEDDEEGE
T1 sequence (P05106 27-788): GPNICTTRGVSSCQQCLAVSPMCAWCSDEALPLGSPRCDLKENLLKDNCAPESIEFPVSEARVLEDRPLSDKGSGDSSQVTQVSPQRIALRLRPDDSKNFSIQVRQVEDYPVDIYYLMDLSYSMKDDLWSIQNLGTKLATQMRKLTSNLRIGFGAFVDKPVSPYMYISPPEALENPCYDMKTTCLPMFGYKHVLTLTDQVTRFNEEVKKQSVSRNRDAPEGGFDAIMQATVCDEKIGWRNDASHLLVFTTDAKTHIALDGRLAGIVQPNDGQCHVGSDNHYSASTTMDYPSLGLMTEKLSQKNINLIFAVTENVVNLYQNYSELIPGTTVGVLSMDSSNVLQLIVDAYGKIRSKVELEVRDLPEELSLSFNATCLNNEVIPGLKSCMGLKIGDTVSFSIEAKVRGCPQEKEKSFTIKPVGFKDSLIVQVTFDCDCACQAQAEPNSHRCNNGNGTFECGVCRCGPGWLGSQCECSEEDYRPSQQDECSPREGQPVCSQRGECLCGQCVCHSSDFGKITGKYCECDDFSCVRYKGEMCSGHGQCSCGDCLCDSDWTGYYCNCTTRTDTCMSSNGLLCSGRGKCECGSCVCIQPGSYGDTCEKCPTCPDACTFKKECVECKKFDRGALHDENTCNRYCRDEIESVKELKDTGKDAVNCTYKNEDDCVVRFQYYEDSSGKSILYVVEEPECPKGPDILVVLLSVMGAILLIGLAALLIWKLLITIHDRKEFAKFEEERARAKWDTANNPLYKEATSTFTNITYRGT
Procedure: Platelet incubations were carried out in wells of Falcon flexible polyvinyl chloride (PVC) microtitre plates with 96 U-bottom wells (Becton Dickinson, San Jose, Calif.). ELISA reactions were carried out in 96 well Immulon II polystyrene plates (Dynatech Laboratories, Inc., Chantilly, Va.) that had been precoated with streptavidin. This was accomplished by addition of 75 μl/well of streptavidin (1.25 μg/ml) for 16 hours at 4°, followed by washing four times with 200 μl of 1% TWEEN(polyethylenesorbit -20 in phosphate-buffered saline (PBS), pH 7.4, blocking with 200 μl of 1% bovine serum albumin in PBS for 2 hours at room temperature, and washing again. These plates could be stored at -20° for at least 3 months prior to use in the assay.
(§1) Whole blood was obtained from healthy, drug-free volunteers and anticoagulated with a 1:6 volume of acid-citrate-dextrose formula A. Platelet-rich plasma was collected by centrifugation at 180×g for 20 minutes, incubated for 5 minutes with 1 μM prostaglandin E1 and 1 unit/ml apyrase, then sedimented at 500×g for 10 minutes and resuspended in 5 ml of 2 wash buffer containing 20 mM HEPES, 0.15 M NaCl, 0.1% glucose, 1 μM prostaglandin E1, 1 unit/ml apyrase, and 1.5 mM EDTA, pH 7.4. After another centrifugation at 500×g for 20 minutes, the platelets were finally resuspended to 5.8×10^8 /ml in an incubation buffer containing 137 mM NaCl, 2.7 mM KCl, 1.0 mM MgCl2, 3.3 mM NaH2 PO4, 0.1% glucose, 0.1% bovine serum albumin, and 20 mM HEPES, pH 7.35.
Fifty-five μl of washed platelets were added in triplicate to wells of PVC plates containing 10 μl of the desired agonist (or the activation inhibitor, PGI2) and 25 μl of the desired inhibitory test compound (or the equivalent vehicle as a diluent). After 10 minutes at 37° without shaking, 10 μl of biotin-PAC1 were added to achieve a final antibody concentration of 0.5 μg/ml and a platelet concentration of 3.2×10^8 /ml. After a further 15 minutes incubation at room temperature without shaking, the microtitre plates were centrifuged at 2800 rpm for 10 minutes to sediment the platelets, conditions under which essentially all of the platelets were removed from the supernatant.
After platelet centrifugation, 50 μl of supernatant from each well were transferred to corresponding wells of streptavidin-coated plates and incubated for 30 minutes at room temperature. Each well was then washed four times with 200 μl of PBS/Tween, followed by addition of 50 μl of goat anti-mouse IgM-horseradish peroxidase conjugate (1:1500). After incubation for 60 minutes at room temperature, the plates were again washed four times with PBS/Tween, followed by addition of 50 μl of a reaction mixture containing 1 mg/ml o-phenylenediamine dihydrochloride and 0.012% H2 O2 in 0.1 M citrate buffer, pH 4.5. After a final 20 minutes at room temperature, reactions were stopped with 25 μl of 4 N HCl, and formation of the reaction product was measured at 490 nm in a THERMOmax microplate reader (Molecular Devices, Inc.)
Triplicate aliquots of washed human platelets were incubated in microtitre wells at a final volume of 90 μl in the presence of a platelet agohist such as PMA or thrombin, in order to convert αIIb β3 into a high affinity, ligand-competent state. Compounds that were being tested for their ability to inhibit αIIb β3 were also added to some of the wells at this stage. Other wells contain PGI2 (0.2 μM), a potent platelet activation inhibitor, to purposely maintain αIIb β3 in a low-affinity state. After 10 minutes at 37°, 10 μl of a subsaturating and limiting concentration of biotin-PAC1 was added to each well and the incubation was continued for an additional 15 minutes at room temperature.
The microtitre plates were then centrifuged at 2800 rpm for 10 minutes in order to sediment the platelets. […] In contrast, platelets in wells containing an agonist have bound biotinPAC1. […]

αIIb β3 = conditions: PMA 0.2 μM; Shattil et al., Blood 1987; cited from earlier work
[3] = test system: integrin αIIb β3 (washed platelets); test: flow cytometry of FITC-PAC1 binding to washed platelets; format: cell-based, human; conditions: washed platelets stimulated for 15 minutes with 0.2 mM phorbol myristate acetate; representative experiment
Procedure: as §1
Assay variables in each step of the assay were examined systematically. […] Flow cytometry was used to assess the activation state of the platelets using FITC-PAC1 as the activation marker (Shattil et al., Blood 1987, 70, 307). No activation of washed platelets was detected. In a representative experiment, mean FITC-PAC1 binding to washed platelets was 22 arbitrary fluorescence units, a value identical to that obtained with platelets in whole blood or in platelet-rich plasma. FITC-PAC1 binding to washed platelets that had been stimulated for 15 minutes with 0.2 mM phorbol myristate acetate amounted to 1,776 fluorescence units.

[4] = test system: "internal" pool of activated αIIb β3; conditions: unstirred platelets; Woods et al. 1986; cited from earlier work
protein kinase C = conditions: Toullec et al. 1991; cited from earlier work

For `O=CC[C@@H](O)[C@H](O)[C@H](O)CO` [2-Deoxyglucose], which “inhibition of platelet aggregation and secretion” value [1] is on record?
The value was “block both platelet aggregation and secretion”.

With `Nc1ncnc2c1ncn2[C@@H]1O[C@H](COP(=O)(O)OP(=O)(O)O)[C@@H](O)[C@H]1O` [ADP] as the compound, how does the EC50 [2] read?
The EC50 was ~1000 nM.

And the “concentration of maximal αIIb β3 activation” value ([2]; ADP)?
Its value is 10 µM.

What about the “extent of biotin-PAC1 binding at maximal agonist concentrations” value [2] of the same compound?
Its value is “less”.

And the “αIIb β3 activation” value [2]?
Its value is “caused αIIb β3 activation in a dose-dependent manner”.

With `CCCCC[C@H](O)/C=C/[C@@H]1[C@H]2C/C(=C/CCCC(=O)O)O[C@H]2C[C@H]1O` [PGI2, prostaglandin I2] as the compound, how does the “biotin-PAC1 bound to platelets in wells containing PGI2” value ([2]; PGI2 0.2 μM) read?
The value was “do not have bound biotin-PAC1”.

And the “depletion of PAC1 from supernatant” value ([2]; PGI2-treated, unactivated platelets, any platelet concentration)?
Its value is “No depletion of PAC1 was observed”.

With `CCCCCCCCCCCCCC(=O)O[C@@H]1[C@@H](C)[C@@]2(O)[C@@H](C=C(CO)C[C@]3(O)C(=O)C(C)=C[C@@H]23)[C@@H]2C(C)(C)[C@]12OC(C)=O` [PMA, phorbol myristate acetate] as the compound, how does the “activation of αIIb β3 in the integrin activation ELISA” value ([2]; PMA 0.2 μM) read?
The value was “maximal activation of αIIb β3”.

What about the “amount of biotin-PAC1 remaining in supernatant” value ([2]; PMA 0.2 μM, 0.5 μg/ml biotin-PAC1, increasing number of activated platelets) of the same compound?
Its value is “decreased as the number of activated platelets in the well increased”.

What about the “extent of biotin-PAC1 binding at maximal agonist concentrations” value [2] of the same compound?
Its value is “similar”.

What about the “activation of αIIb β3 in conventional assays” value (αIIb β3) of the same compound?
Its value is “maximal activation of αIIb β3”.

What about the “mean FITC-PAC1 binding” value [3] of the same compound?
The value was 1,776 fluorescence units.

What about the “stimulation of surface expression of an internal pool of activated αIIb β3” value [4] of the same compound?
The value was “stimulate the surface expression”.

With RGDS as the compound, how does the “inhibition of biotin-PAC1 binding to activated platelets” value ([2]; activated platelets) read?
Its value is “inhibited in a dose-dependent manner”.

Which “inhibition of biotin-PAC1 binding to activated platelets” value ([2]; activated platelets) does the source give for RGES here?
Its value is “ineffective”.

Which “inhibition of platelet aggregation and secretion” value [1] does the source give for antimycin A here?
Its value is “block both platelet aggregation and secretion”.

What does the source list for bisindolylmaleimide?
concentration maximally effective on protein kinase C in platelets (protein kinase C): 10 to 20 µM; concentration of complete inhibition of biotin-PAC1 binding ([2]; PMA-stimulated platelets): 20 µM; IC50 ([2]; PMA-stimulated platelets, read-out: IC50, inhibition of biotin-PAC1 binding): ~1000 nM

Which IC50 ([2]; activated platelets, read-out: IC50, inhibition of biotin-PAC1 binding to activated platelets) does the source give for fibrinogen here?
The IC50 was 400 nM.

What does the source list for thrombin?
extent of biotin-PAC1 binding at maximal agonist concentrations [2]: similar; αIIb β3 activation [2]: caused αIIb β3 activation in a dose-dependent manner; concentration of maximal αIIb β3 activation ([2]; thrombin): 0.1 U/ml; stimulation of surface expression of an internal pool of activated αIIb β3 [4]: stimulate the surface expression
